In brackets after ≈: the same amount, converted by molar mass. Like-named read-outs stand apart in the source and are kept apart here.

Test in all cases: Minimum inhibitory concentration (MIC), standard method of the Japanese Chemotherapeutic Association
For experiment [1], the system named is Salmonella typhimurium IID 1000. The experiment is classed as cell-based. Conditions: Salmonella enterica, read-out: Minimum Inhibitory Concentration (MIC).
The test system of experiment [2] is Proteus vulgaris. The experiment is classed as cell-based. The following applies: read-out: Minimum Inhibitory Concentration (MIC).
The test system of experiment [3] is Escherichia coli N I H J. The experiment is classed as cell-based. Conditions: read-out: Minimum Inhibitory Concentration (MIC).
The test system of experiment [4] is Salmonella enteritidis IID 604. The experiment is classed as cell-based. Conditions: Salmonella enterica, read-out: Minimum Inhibitory Concentration (MIC).
For experiment [5], the system named is Shigella dysenteriae IID 633. The following applies: IID633, read-out: Minimum Inhibitory Concentration (MIC).
The subject of experiment [6] is Enterobacter aerogenes IID 5206. The experiment is classed as cell-based. The following applies: Klebsiella aerogenes.
Experiment [7] concerns Staphylococcus epidermidis ATCC12228. The experiment is classed as cell-based.
For experiment [8], the system named is Proteus morganii IID 602. The experiment is classed as cell-based. Conditions: Morganella morganii.
Experiment [9] relates to Bacillus subtilis ATCC 6633. The experiment is classed as cell-based.
For experiment [10], the system named is Pseudomonas aeruginosa IFO 13739. The experiment is classed as cell-based.
Experiment [11] has as its system Pseudomonas pudita IID 5121. The experiment is classed as cell-based.
Experiment [12] deals with Pseudomonas aeruginosa IFO 3080. The experiment is classed as cell-based.
Experiment [13] concerns Shigella boydii IID 627. The experiment is classed as cell-based. The following applies: IID627, Inoculum size: 10^6 cells/ml.
The subject of experiment [14] is Enterobacter cloacae IID 977. The experiment is classed as cell-based.
The subject of experiment [15] is Escherichia coli MEGAWA. The experiment is classed as cell-based. The following applies: for MIC: Escherichia coli.
Experiment [16] deals with Shigella sonnei IID 969. The experiment is classed as cell-based. The following applies: IID969, Inoculum size: 10^6 cells/ml.
The test system of experiment [17] is Staphylococcus aureus 209-P. The experiment is classed as cell-based. Conditions: read-out: Minimum Inhibitory Concentration (MIC).
Experiment [18] has as its system Staphylococcus aureus TERAJIMA
The experiment is classed as cell-based. The following applies: read-out: Minimum Inhibitory Concentration (MIC).

Experiment [19] relates to Serratia marcenscens IFO 12648. The experiment is classed as cell-based.
Experiment [20] relates to Klebsiella pneumoniae IID 865. The experiment is classed as cell-based.
For experiment [21], the system named is Salmonella paratyphi IID 605. Conditions: Salmonella enterica, IID605|PARATYPHI, read-out: Minimum Inhibitory Concentration (MIC).
Setting [22] is: Inoculum size: 10^6 cells/ml, weight concentration.
The mark [23] stands for this setting: IID5206, Inoculum size: 10^6 cells/ml, weight concentration, read-out: Minimum Inhibitory Concentration (MIC).
Setting [24] is: ATCC12228, Inoculum size: 10^6 cells/ml, weight concentration, read-out: Minimum Inhibitory Concentration (MIC).
Where [25] appears, read: IID602, Inoculum size: 10^6 cells/ml, weight concentration, read-out: Minimum Inhibitory Concentration (MIC).
Where [26] appears, read: ATCC6633, Inoculum size: 10^6 cells/ml, weight concentration, read-out: Minimum Inhibitory Concentration (MIC).
[27] abbreviates: IFO13739, Inoculum size: 10^6 cells/ml, weight concentration, read-out: Minimum Inhibitory Concentration (MIC).
Where [28] appears, read: IID5121, Inoculum size: 10^6 cells/ml, weight concentration, read-out: Minimum Inhibitory Concentration (MIC).
[29] abbreviates: IFO3080, read-out: Minimum Inhibitory Concentration (MIC).
The mark [30] stands for this setting: IID977, Inoculum size: 10^6 cells/ml, weight concentration, read-out: Minimum Inhibitory Concentration (MIC).
Setting [31] is: Inoculum size: 10^6 cells/ml, weight concentration, read-out: Minimum Inhibitory Concentration (MIC).
Where [32] appears, read: IID865, Inoculum size: 10^6 cells/ml, weight concentration, read-out: Minimum Inhibitory Concentration (MIC).
The mark [33] stands for this setting: IID602, read-out: Minimum Inhibitory Concentration (MIC).
Setting [34] is: IFO12648, read-out: Minimum Inhibitory Concentration (MIC).
The mark [35] stands for this setting: IID5206, read-out: Minimum Inhibitory Concentration (MIC).
[36] abbreviates: ATCC6633, read-out: Minimum Inhibitory Concentration (MIC).
[37] abbreviates: IFO13739, read-out: Minimum Inhibitory Concentration (MIC).
Setting [38] is: IID977, read-out: Minimum Inhibitory Concentration (MIC).
The mark [39] stands for this setting: Inoculum size: 10^6 cells/ml, potency concentration.

With `Cn1nnnc1SCC1=C(C(=O)O)N2C(=O)C(NC(=O)[C@H](NC(=O)N3CCN(N=C4SCCS4)C3=O)c3ccccc3)C2SC1` (single isomer, unassigned) [KI-6248, sodium 7-{D-(-)-α-[(2-oxo-3-(1,3-dithiolan-2-imino)-imidazolidin-1-yl)-carboxamido]-phenylacetamido}-3-[(1-methyl-1,2,3,4-tetrazol-5-yl)-thiomethyl]-3-cephem-4-carboxylate], the MIC in experiment [1] (setting [22]) is 0.78 µg/mL; in experiment [2], 1.56 µg/mL; in experiment [3] (setting [22]) it was < 0.1 µg/mL; in [4] (setting [22]) it was 3.13 µg/mL; in [5] it was 0.2 µg/mL; in experiment [6] (setting [23]), 3.13 µg/mL. Also, the MIC in experiment [7] (setting [24]) is 0.39 µg/mL; in [8] (setting [25]), 3.13 µg/mL; in [9] (setting [26]) it was 0.78 µg/mL; in [10] (setting [27]) it was 12.5 µg/mL; in [11] (setting [28]) it was 25 µg/mL; in experiment [12] (setting [29]), 1.56 µg/mL. For the same compound, the MIC in [13] (weight concentration) stood at 0.39 µg/mL; in [14] (setting [30]), 3.13 µg/mL; in experiment [15] (setting [31]), 6.25 µg/mL; in [16] (weight concentration), 0.78 µg/mL; in experiment [17] (setting [22]), 0.78 µg/mL; in experiment [18] (setting [22]), 0.78 µg/mL. Besides, the MIC was 3.13 µg/mL in experiment [19] (IFO12648, Inoculum size: 10^6 cells/ml, weight concentration, read-out: Minimum Inhibitory Concentration (MIC)); < 0.1 µg/mL in [20] (setting [32]); 1.56 µg/mL in experiment [21].
On to `CC(=O)OCC1=C(C(=O)O)N2C(=O)C(NC(=O)[C@H](NC(=O)N3CCN(N=C4SCCS4)C3=O)c3ccccc3)C2SC1` (single isomer, unassigned) [KI-6203, sodium 7-{D-(-)-α-[(2-oxo-3-(1,3-dithiolan-2-imino)-imidazolidin-1-yl)-carboxamido]-phenylacetamido}-3-acetoxymethyl-3-cephem-4-carboxylate], for which the MIC was 3.13 µg/mL in experiment [1] (setting [22]); 6.25 µg/mL in experiment [2]; < 0.1 µg/mL in [3] (setting [22]); 6.25 µg/mL in [4]; 0.78 µg/mL in experiment [5]; 12.5 µg/mL in [6] (setting [23]). The MIC in experiment [7] (setting [24]) was determined as 0.39 µg/mL; in experiment [8] (setting [33]) it was 6.25 µg/mL; in experiment [9] (setting [26]) it was 0.78 µg/mL; in experiment [10] (setting [27]) it was 12.5 µg/mL; in experiment [11] (setting [28]), 50 µg/mL; in experiment [12] (IFO3080, Inoculum size: 10^6 cells/ml, weight concentration, read-out: Minimum Inhibitory Concentration (MIC)), 3.13 µg/mL. In addition, the MIC in [13] (weight concentration) worked out at 1.56 µg/mL; in experiment [14] (setting [30]) it was 12.5 µg/mL; in [15] (setting [31]) it was 25 µg/mL; in experiment [16] (weight concentration), 1.56 µg/mL; in experiment [17] (setting [22]), 0.78 µg/mL; in experiment [18] it was 1.56 µg/mL. Besides, the MIC in [19] (setting [34]) stood at 6.25 µg/mL; in experiment [20] (setting [32]) it was 0.39 µg/mL; in [21], 6.25 µg/mL.
Regarding `CC1=C(C(=O)O)N2C(=O)[C@@H](NC(=O)[C@H](N)c3ccccc3)[C@H]2SC1` [CEX, cephalexin, reference compound], the MIC in [1] was 3.13 µg/mL (≈ 9.01 µM); in experiment [2], 12.5 µg/mL (≈ 36 µM); in experiment [3], 3.13 µg/mL (≈ 9.01 µM); in [4] it was 6.25 µg/mL (≈ 18 µM); in experiment [5], 3.13 µg/mL (≈ 9.01 µM); in experiment [6] (setting [35]) it was > 100 µg/mL. In addition, the MIC was > 100 µg/mL in experiment [8] (setting [33]); 0.78 µg/mL (≈ 2.25 µM) in experiment [9] (setting [36]); > 100 µg/mL in experiment [10] (setting [37]); > 100 µg/mL in experiment [11] (IID5121, read-out: Minimum Inhibitory Concentration (MIC)); > 100 µg/mL in experiment [12] (setting [29]); 3.13 µg/mL (≈ 9.01 µM) in [13] (potency concentration). For the same compound, the MIC in experiment [14] (setting [38]) was > 100 µg/mL; in experiment [15] (read-out: Minimum Inhibitory Concentration (MIC), Inoculum size: 10^6 cells/ml, potency concentration), > 100 µg/mL; in [16] (potency concentration), 6.25 µg/mL (≈ 18 µM); in [19] (setting [34]), > 100 µg/mL; in experiment [21] it was 12.5 µg/mL (≈ 36 µM). Further, the “Minimum Inhibitory Concentration (MIC)” value in experiment [15] (setting [39]) is < 100 µg/mL.
`Cn1nnnc1SCC1=C(C(=O)O)N2C(=O)C(NC(=O)[C@H](NC(=O)N3CCN(N=C4SCCS4)C3=O)c3ccc(O)cc3)C2SC1` (single isomer, unassigned) [KI-6269, sodium 7-{D-(-)-α-[(2-oxo-3-(1,3-dithiolan-2-imino)-imidazolidin-1-yl)-carboxamido]-4-hydroxyphenylacetamido}-3-[(1-methyl-1,2,3,4-tetrazol-5-yl)-thiomethyl]-3-cephem-4-carboxylate]: the MIC in [1] was 1.56 µg/mL; in experiment [2] (setting [22]) it was 0.78 µg/mL; in experiment [3] (setting [22]), < 0.1 µg/mL; in experiment [4] it was 1.56 µg/mL; in experiment [5], < 0.1 µg/mL; in experiment [6] (setting [35]), 1.56 µg/mL. The MIC in [7] (setting [24]) stood at 0.39 µg/mL; in experiment [8] (setting [25]), 3.13 µg/mL; in experiment [9] (setting [26]), 0.78 µg/mL; in experiment [10] (setting [27]), 6.25 µg/mL; in [11] (setting [28]), 25 µg/mL; in [12] (setting [29]), 1.56 µg/mL. The MIC was < 0.1 µg/mL in experiment [13] (weight concentration); 3.13 µg/mL in experiment [14] (setting [30]); 6.25 µg/mL in experiment [15] (setting [31]); 0.2 µg/mL in [16] (weight concentration); 1.56 µg/mL in [17]; 1.56 µg/mL in experiment [18]. The MIC in experiment [19] (setting [34]) is 1.56 µg/mL; in experiment [20] (setting [32]) it was 0.2 µg/mL; in [21] it was 1.56 µg/mL.
Turning to `CC(=O)OCC1=C(C(=O)O)N2C(=O)[C@@H](NC(=O)Cc3cccs3)[C@H]2SC1` [CET, cephalothin, reference compound], the MIC in experiment [1] is 0.78 µg/mL (≈ 1.97 µM); in experiment [2], 6.25 µg/mL (≈ 15.8 µM); in [3] (setting [39]), 0.39 µg/mL (≈ 0.984 µM); in [4], 1.56 µg/mL (≈ 3.93 µM); in experiment [5], 0.78 µg/mL (≈ 1.97 µM); in experiment [6] (setting [35]) it was > 100 µg/mL. Besides, the MIC is < 0.1 µg/mL in experiment [7] (ATCC12228, read-out: Minimum Inhibitory Concentration (MIC)); > 100 µg/mL in experiment [8] (setting [33]); < 0.1 µg/mL in experiment [9] (setting [36]); > 100 µg/mL in [10] (setting [37]); > 100 µg/mL in experiment [11] (IID5121, Inoculum size: 10^6 cells/ml, potency concentration, read-out: Minimum Inhibitory Concentration (MIC)); > 100 µg/mL in experiment [12] (setting [29]). Further, the MIC in [13] (potency concentration) is 0.78 µg/mL (≈ 1.97 µM); in experiment [14] (setting [38]), > 100 µg/mL; in [15] (Inoculum size: 10^6 cells/ml, potency concentration, read-out: Minimum Inhibitory Concentration (MIC)), > 100 µg/mL; in experiment [16] (potency concentration), 6.25 µg/mL (≈ 15.8 µM); in [17], 0.2 µg/mL (≈ 0.504 µM); in experiment [18], 0.2 µg/mL (≈ 0.504 µM). The MIC in experiment [19] (IFO12648, Inoculum size: 10^6 cells/ml, potency concentration, read-out: Minimum Inhibitory Concentration (MIC)) is > 100 µg/mL; in experiment [20] (IID865, read-out: Minimum Inhibitory Concentration (MIC)), 0.78 µg/mL (≈ 1.97 µM); in [21], 3.13 µg/mL (≈ 7.9 µM). The “Minimum Inhibitory Concentration (MIC)” value in experiment [15] (setting [39]) is < 100 µg/mL.

The record behind these values is US4436904A, “Cephalosporins” (Kanto Ishi Pharmaceutical Co., Ltd., priority 1981, dated 1984).
